# Assays:
# [1] = healthy volunteers, single ascending doses up to 800 mg once daily; cited from earlier work
# [2] = tested on: SK-HEP-1 hepatic cancer cells; assay: MTT cell viability assay, SK-HEP-1 hepatic cancer cells; type: cell-based; conditions: 72 hours, 0.01-20 μM, calculated with Compusyn software
# Procedure: (§1) FIG. 1. Floxphosteridine and floxuridine anticancer activity in vitro against SK-HEP-1 hepatic cancer cells. SK-HEP-1 hepatic cancer cells were treated with various concentrations (0.01 μM-20 μM) of floxphosteridine and floxuridine for 72 hours, and cell viability was evaluated with MTT cell viability assay.
# (§2) We treated three cancer cell lines with various concentrations of Floxphosteridine (compound Ic) and floxuridine for 72 hours. The structure of floxuridine is shown below:
# (§3) The SK-HEP-1 and HEPG2 cell lines used in these experiments represent in vitro models for hepatic cancer. The AGS cancer cell line is an in vitro model for gastric cancer.
# In FIG. 1, SK-HEP-1 hepatic cancer cells were treated with various concentrations (0.01-20 μM) of floxphosteridine and floxuridine for 72 hours, and cell viability was evaluated with the MTT assay.
# [3] = tested on: HEPG2 hepatic cancer cells; assay: MTT cell viability assay, HEPG2 hepatic cancer cells; type: cell-based; conditions: 72 hours, 1.0-20 μM, calculated with Compusyn software
# Procedure: as §1, with “2.” for “1.”, “HEPG2” for “SK-HEP-1”, “(1.0” for “(0.01”
# as §2, §3
# In FIG. 2, the two compounds were tested for anticancer activity against HEPG2 hepatic cancer cells. The cells were treated with various concentrations (1.0-20 μM) of floxphosteridine and floxuridine for 72 hours, and cell viability was evaluated with the MTT assay.
# [4] = tested on: AGS gastric cancer cells; assay: MTT cell viability assay, AGS gastric cancer cells; type: cell-based; conditions: 72 hours, 1.0-20 μM (0.01-20 μM), calculated with Compusyn software
# Procedure: FIG. 3. Floxphosteridine and floxuridine anticancer activity in vitro against AGS gastric cancer cells. AGS gastric cancer cells were treated with various concentrations (0.01 μM-20 μM) of floxphosteridine and floxuridine for 72 hours, and cell viability was evaluated with MTT cell viability assay.
# as §2, §3
# In FIG. 3, the two compounds were tested for anticancer activity against AGS gastric cancer cells. The cells were treated with various concentrations (1.0-20 μM) of floxphosteridine and floxuridine for 72 hours, and cell viability was evaluated with the MTT assay.
compound,measurement,setting,value
CC(C)OC(=O)[C@H](C)N[P@](=O)(OC[C@H]1O[C@@H](n2ccc(=O)[nH]c2=O)[C@](C)(F)[C@@H]1O)Oc1ccccc1 (racemic) [PSI-7851],safety and tolerability,[1],"generally safe and well tolerated, with no dose-limiting toxicities"
same,systemic exposure profile (pharmacokinetic results),[1],rapid uptake of the drug by the liver and low plasma exposure to the prodrug PSI-7851
CC(C)OC(=O)[C@H](C)N[P@](=O)(OC[C@H]1O[C@@H](n2cc(F)c(=O)[nH]c2=O)C[C@@H]1O)Oc1ccccc1 [floxphosteridine],IC50,"[2]; Homo sapiens, SK-HEP1, SK-HEP-1 cells",31.7 µM
same,IC50,[3]; Homo sapiens,13.3 µM
same,IC50,[4]; Homo sapiens,7.26 µM
floxuridine,IC50,[2]; SK-HEP-1 cells,0.8 µM
same,IC50,[3],10.4 µM
same,IC50,[4],5.71 µM

# From patent publication US20160137685A1, “NUCLEOSIDE PHOSPHORAMIDATES AND PHOSPHORAMIDITES” (priority 2013, published 2016)
